Laboratory results published in US7635692B2, “Composition for the prevention of osteoporosis comprising a combination of isoflavones and polyunsaturated fatty acids” (DSM IP Assets B.V., priority 2001, dated 2009).

Legend:
[1] = test system: ovariectomized rat osteoporosis (OVX) model; experiment: Bone mineral density (BMD) of femur by DXA in the OVX rat model; format: in vivo; details: OVX rats
From the text: In the following experimental section dual-energy X-ray absorptiometry (DXA) was used to measure bone mineral density.
In the experimental set up data were elaborated using the ovariectomized rat osteoporosis (OVX) model. This model mimics the estrogen deficient status as found in postmenopausal women or poststerilized female pets leading to osteoporosis. The SHAM group with intact ovaries served as control. Each test group consisted of 10-12 animals. The feed used was free of isoflavones, such as, for example, genistein. […] The administration of vitamin K1, in an amount of 20 μg/kg feed corresponds to a daily dosage of about 1 μg/kg BW, the estimated daily requirement of vitamin K1. The amount of vitamin D3 was 500 IU/kg feed which corresponds to a daily dosage of 25 IU/kg BW, the estimated daily requirement. For fortification, PUFA (5% of ROPUPA “30” n-3 Food Oil) was added to the feed corresponding to a PUPA fortification of % in feed as given in Table 1. Bone mineral density, osteocalcin, and deoxypyridinolin have been measured 84 days post intervention.
Bone mineral density (BMD) measurement in the femur of OVX rats: […]

[2] = test system: ovariectomized rat osteoporosis (OVX) model; experiment: Serum osteocalcin (bone formation marker) in OVX rats; format: in vivo
Method: Osteocalcin, a biochemical marker for bone formation, is a bone-specific protein secreted primarily in osteoblasts, i.e. the bone forming cells. Serum osteocalcin was measured as marker for bone formation.
(§1) In the experimental set up data were elaborated using the ovariectomized rat osteoporosis (OVX) model. This model mimics the estrogen deficient status as found in postmenopausal women or poststerilized female pets leading to osteoporosis. The SHAM group with intact ovaries served as control. Each test group consisted of 10-12 animals. The feed used was free of isoflavones, such as, for example, genistein. The test compounds in various combinations as given in Table 1 have been administered by feed admix. […] The administration of vitamin K1, in an amount of 20 μg/kg feed corresponds to a daily dosage of about 1 μg/kg BW, the estimated daily requirement of vitamin K1. The amount of vitamin D3 was 500 IU/kg feed which corresponds to a daily dosage of 25 IU/kg BW, the estimated daily requirement. For fortification, PUFA (5% of ROPUPA “30” n-3 Food Oil) was added to the feed corresponding to a PUPA fortification of % in feed as given in Table 1. Bone mineral density, osteocalcin, and deoxypyridinolin have been measured 84 days post intervention.
Serum Osteocalcin (bone formation marker) measurement in OVX rats: […]

[3] = test system: ovariectomized rat osteoporosis (OVX) model; experiment: Deoxypyridinoline excretion (bone resorption marker) in OVX rats; format: in vivo
Method: Deoxypyridinoline (DPD) crosslinks excretion provides a highly specific marker for bone resorption. DPD crosslinks excretion was measured as a marker for bone resorption. The values have to be corrected for urinary concentration by creatinine measurement as it is known in the art.
as §1
Deoxypyridinoline (bone resorption marker) measurement in OVX rats: […]

[4] = Plasma genistein level in rats after feed admix; format: in vivo, rat; details: genistein 15 mg/kg BW per day, comparable to Japanese people on a traditional diet
From the text: as §1

[5] = 84 days post intervention, compared with the other groups

O=c1c(-c2ccc(O)cc2)coc2cc(O)cc(O)c12 [Genistein, 4′,5,7-trihydroxy-isoflavone]
Effect on BMD (in words) [1, 5]: improved BMD to control values
Bone mineral density of femur, Mean ([1]; feed admix, day 84 postintervention, DXA): 0.143 g/cm^2
Effect on serum osteocalcin levels (in words) [2, 5]: reduced osteocalcin levels to control values
Serum osteocalcin, Mean serum conc. ([2]; feed admix, day 84 postintervention): 14.6 ng/mL
Effect on DPD excretion (in words) [3, 5]: restores DPD excretion to values of the control group
Deoxypyridinoline excretion, Mean ([3]; feed admix, day 84 postintervention, corrected by creatinine): 220.5 nmol DPD/mmol Creatinine
plasma genistein level [4]: ~280 nM
